pIC50: −log10 of the molar value. No end group written: not given here.

Assay in all cases: biochemical
Common to all, as to type: binding

The target of experiment [1] is HLA-A*0201 (HLA-A2.1) (Homo sapiens, UniProt P04439, D140Y/D185E/D98H/E176V/E277Q/G131W/G231S/I119V/I121R/I166T/I218V/L300P/L318F/N151K/N90K/P208A/P217A/Q86G/Q94H/R138H/R169H/T345S).
In experiment [2] the target is A*0206 (Homo sapiens, UniProt P04439, D140Y/D185E/D98H/E176V/E277Q/F33Y/G131W/G231S/I119V/I121R/I166T/I218V/L300P/L318F/N151K/N90K/P208A/P217A/Q86G/Q94H/R138H/R169H/T345S).
The target in experiment [3] is A*0203 (Homo sapiens, UniProt P04439, A173T/D140Y/D185E/D98H/E277Q/G131W/G231S/I119V/I121R/I166T/I218V/L180W/L300P/L318F/N151K/N90K/P208A/P217A/Q86G/Q94H/R138H/R169H/T345S).
For experiment [4], the target named is A*0202 (Homo sapiens, UniProt P04439, D140Y/D185E/D98H/E176V/E277Q/G131W/G231S/I119L/I121R/I166T/I218V/L180W/L300P/L318F/N151K/N90K/P208A/P217A/Q67R/Q86G/Q94H/R138H/R169H/T345S).
In experiment [5] the target is A*6802 (Homo sapiens, UniProt P04439, A269V/D140Y/D185E/E176V/E277Q/E87N/F33Y/G231S/I121R/I166T/I218V/L180W/L300P/L318F/N151K/P208A/P217A/Q86R/R138H/R169H/S129P/T345S/V36M).

In general, pIC50 refers to −log10 of the IC50, conventionally taken in molar units. Read a high pIC50 as a low IC50. Regarding `CC[C@H](C)[C@H](NC(=O)CN)C(=O)N[C@@H](CCSC)C(=O)N[C@H](C(=O)NCC(=O)N[C@H](C(=O)N[C@@H](CC(C)C)C(=O)N[C@H](C(=O)NCC(=O)N[C@H](C(=O)N[C@H](C(=O)O)C(C)C)C(C)C)C(C)C)C(C)C)[C@@H](C)CC` [Peptide 9013.0344], the negative-log IC50 (pIC50) in experiment [1] was 6.25; in experiment [2] it was 6.04; in experiment [3], 7.09.

Take AIFGVNPTI [Peptide 86.0178]: the pIC50 was 5.74 in experiment [1], 7.89 in experiment [4], 6.49 in experiment [3] and 5.45 in experiment [5].

As to FLKGCIISYV [Peptide 1578.43], the pIC50 in experiment [1] is 6.47; in experiment [4], 9.07; in experiment [3] it was 8.70; in experiment [5], 6.10.

GVNLSLSCHAV [Peptide 9013.0311]: the pIC50 in experiment [1] is 5.68; in experiment [4], 7.20; in experiment [3], 5.59; in experiment [5], 6.02.

With ILAEAMSKA [Peptide 1516.09], the pIC50 in experiment [1] was 7.14; in experiment [4] it was 8.46; in experiment [3], 8.55; in experiment [5], 5.58.

Turning to ILIGVLVGVAL [Peptide 9013.0347], the pIC50 in experiment [1] is 5.82; in experiment [2], 6.92; in experiment [3] it was 6.00; in experiment [5], less than 4.70.

Turning to ILNDTGFYTL [Peptide 9013.0150], the pIC50 in experiment [1] was 6.82; in experiment [4] it was 8.68; in experiment [3], 7.23; in experiment [5], 4.95.

For the molecule ILNIIQNDT [Peptide 9013.0033], the negative logarithm of the IC50 (pIC50) in experiment [1] is less than 4.70; in experiment [2], less than 4.70; in experiment [3], 5.10; in experiment [5] it was less than 4.70.

Turning to ILYPNASLL [Peptide 9013.0030], the pIC50 in experiment [1] was 6.89; in experiment [4], 8.74; in experiment [3], 8.38; in experiment [5], 4.83.

As for KLITVSAEL [Peptide 9013.0084], the pIC50 in experiment [1] was 7.15; in experiment [4], 8.48; in experiment [3], 7.57; in experiment [5], less than 4.70.

In the case of KLLEKLLCI [Peptide 1578.15], the negative-log IC50 (pIC50) was 7.29 in experiment [2], 7.82 in experiment [3] and less than 4.70 in experiment [5].

For the molecule KLLSKLLCV [Peptide 1578.03], the negative logarithm of the IC50 (pIC50) in experiment [1] is 7.26; in experiment [4] it was 7.17; in experiment [3], 7.44; in experiment [5] it was less than 4.70.

As to KLTPLCVIL [Peptide 1516.15], the pIC50 in experiment [1] is 6.45; in experiment [4] it was 7.13; in experiment [3], 6.01; in experiment [5], less than 4.70.

Consider KLTSLCVTL [Peptide 1537.03], for which the pIC50 in experiment [1] is 7.04; in experiment [4], 7.54; in experiment [3], 7.04; in experiment [5], less than 4.70.

As to KVTIESTPFNV [Peptide 9013.0265], the pIC50 in experiment [1] was 5.59; in experiment [2], 7.03; in experiment [3], 7.40; in experiment [5], 5.81.

For the molecule LIQPYSIYA [Peptide 86.0202], the pIC50 is 5.85 in experiment [1], 6.37 in experiment [2], 5.68 in experiment [3] and 5.48 in experiment [5].

In the case of LLFWNPPTT [Peptide 9013.0007], the pIC50 in experiment [1] is 7.96; in experiment [4], 7.82; in experiment [3], 8.37; in experiment [5] it was less than 4.70.

In the case of LLLVHNLPQHV [Peptide 9013.0275], the pIC50 was 5.32 in experiment [1], 5.29 in experiment [2], 6.19 in experiment [3] and less than 4.70 in experiment [5].

LLTFWNPPTTV [Peptide 9013.0259]: the pIC50 was 6.12 in experiment [1], 7.17 in experiment [4], 7.24 in experiment [3] and 5.12 in experiment [5].

For the molecule LQLSNDNRV [Peptide 9013.0072], the negative logarithm of the IC50 (pIC50) in experiment [1] is less than 4.70; in experiment [4], 5.77; in experiment [3], less than 4.70; in experiment [5], less than 4.70.

As to MTANPPIPV [Peptide 1539.01], the pIC50 in experiment [1] was 8.64; in experiment [4] it was 8.14; in experiment [3], 8.60; in experiment [5], 8.70.

For the molecule NLLYGPDDPTI [Peptide 9013.0310], the negative logarithm of the IC50 (pIC50) was 5.01 in experiment [1], less than 4.70 in experiment [2], 5.06 in experiment [3] and less than 4.70 in experiment [5].

For QLSNGNRTV [Peptide 9013.0095], the pIC50 was 4.82 in experiment [1], less than 4.70 in experiment [2], 7.27 in experiment [3] and less than 4.70 in experiment [5].

As to QQHTQVLFV [Peptide 9013.0102], the pIC50 in experiment [1] is 5.68; in experiment [4], 5.85; in experiment [3] it was 7.10; in experiment [5] it was less than 4.70.

Turning to RLQLSNGNRV [Peptide 9013.0224], the pIC50 in experiment [1] was 4.76; in experiment [2], less than 4.70; in experiment [3] it was 6.17; in experiment [5], less than 4.70.

On to RLYVCGIQNSV [Peptide 9013.0335], for which the pIC50 was 6.77 in experiment [1], 8.20 in experiment [4], 7.62 in experiment [3] and less than 4.70 in experiment [5].

As to RTLQQLLFA [Peptide 1525.18], the pIC50 in experiment [1] was 6.02; in experiment [2] it was 7.74; in experiment [3] it was 6.40; in experiment [5], less than 4.70.

Turning to RVLQQLLFI [Peptide 1545.01], the pIC50 was 7.57 in experiment [1], 8.07 in experiment [2], 7.62 in experiment [3] and 4.98 in experiment [5].

Consider SLLTFWNPPV [Peptide 9013.0118], for which the pIC50 in experiment [1] was 6.68; in experiment [4], 7.12; in experiment [3], 6.80; in experiment [5] it was 7.62.

As to SLPVSPRLQV [Peptide 9013.0222], the pIC50 was 5.14 in experiment [1], less than 4.70 in experiment [2], 6.81 in experiment [3] and less than 4.70 in experiment [5].

With TIESTPFNVV [Peptide 9013.0130], the pIC50 was 4.81 in experiment [1], 5.49 in experiment [2], 6.17 in experiment [3] and 6.52 in experiment [5].

With TLELFIPNI [Peptide 9013.0060], the pIC50 in experiment [1] was 7.54; in experiment [2], 7.08; in experiment [3], 6.40.

For TLESTPFNV [Peptide 9013.0012], the pIC50 was 6.67 in experiment [1], 7.72 in experiment [4], 6.66 in experiment [3] and 6.62 in experiment [5].

For TLGIMIGVL [Peptide 9013.0108], the pIC50 in experiment [1] is 5.13; in experiment [2] it was 5.04; in experiment [3], 5.77; in experiment [5], less than 4.70.

TLVLFIAKI [Peptide 9013.0106]: the pIC50 is 4.78 in experiment [1], 7.54 in experiment [2], 7.68 in experiment [3] and 4.89 in experiment [5].

With TQELFIPNV [Peptide 9013.0059], the pIC50 was 6.51 in experiment [1], 7.26 in experiment [2], 5.48 in experiment [3] and 5.31 in experiment [5].

As for TQVLFIAKV [Peptide 9013.0105], the pIC50 in experiment [1] is 5.98; in experiment [2], 7.34; in experiment [3], 7.57.

As to TTVTTITVYV [Peptide 9013.0192], the pIC50 is 5.98 in experiment [1], 7.68 in experiment [4], 6.49 in experiment [3] and 7.77 in experiment [5].

With TVELFIPNITV [Peptide 9013.0300], the pIC50 is 5.09 in experiment [1], 5.78 in experiment [2], less than 4.70 in experiment [3] and 6.71 in experiment [5].

In the case of VLAEAMSAA [Peptide 1516.11], the pIC50 in experiment [1] was 7.62; in experiment [2] it was 8.00; in experiment [3], 9.06; in experiment [5], 6.32.

On to VLAEAMSKA [Peptide 1539.07], for which the pIC50 is 7.16 in experiment [1], 8.47 in experiment [4], 8.12 in experiment [3] and 5.34 in experiment [5].

VLFTCEPET [Peptide 9013.0045]: the pIC50 in experiment [1] is 5.59; in experiment [2], less than 4.70; in experiment [3], 6.30; in experiment [5] it was less than 4.70.

VLYGPDAPV [Peptide 9013.0052]: the pIC50 in experiment [1] is 7.32; in experiment [4], 8.62; in experiment [3], 7.72; in experiment [5] it was 5.49.

In the case of VQWAYDHDI [Peptide 86.0205], the pIC50 is 5.16 in experiment [1], 5.17 in experiment [4], less than 4.70 in experiment [3] and less than 4.70 in experiment [5].

Take YVCGIQNSVSV [Peptide 9013.0337]: the pIC50 was 7.24 in experiment [2] and 6.80 in experiment [3].
